# According to US12146004B2, “Polymyxin compounds and uses thereof” (priority 2014, dated 2024):
# Numbered stars: 1 amine (or outer) side, 2 acyl side, 3 side chain; on linkers, the order of the positions; unused ones are H or OH. Bridge positions count the residues as written; N and C are the ends. Square brackets hold non-standard residues; d marks the D form. Peptide text beside a SMILES is read from it. * marks the point of attachment. ξ: configuration not given here. X11 = O=C([C@@H](Cc1ccc(-c2ccncc2)cc1)N[*:1])[*:2]; dBip = N[C@H](Cc1ccc(-c2ccccc2)cc1)C(=O)O; Octanoyl(6-Me) = CCC(C)CCCCC(=O)*; X3 = CCCCCCCCN1CCNC[C@H]1C(=O)*; Thr(3ξ) = CC(O)[C@H](N)C(=O)O; Dab = NCC[C@H](N)C(=O)O; Dap = NC[C@H](N)C(=O)O
# Assays:
# Type in all cases: cell-based
# Escherichia coli = system: Escherichia coli
# How it was run: (§1)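 Values are minimum inhibitory concentrations in μg/mL, measured across a panel of up to nine strains of each Gram-negative pathogen, some Polymyxin-elevated or resistant.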
# Klebsiella pneumoniae = system: Klebsiella pneumoniae
# How it was run: as §1
# Pseudomonas aeruginosa = system: Pseudomonas aeruginosa
# How it was run: as §1
# Acinetobacter baumannii = system: Acinetobacter baumannii
# How it was run: as §1
# HK-2 cells = system: HK-2 cells
# Excerpt: Values are reported relative to Polymyxin B.
MIC E. coli 058 (Escherichia coli) [µg/mL],MIC E. coli 059 (Escherichia coli) [µg/mL],MIC E. coli 060 (Escherichia coli) [µg/mL],MIC E. coli 061 (Escherichia coli) [µg/mL],MIC E. coli ATCC 25922 (Escherichia coli) [µg/mL],MIC K. pneumoniae 062 (Klebsiella pneumoniae) [µg/mL],MIC K. pneumoniae 063 (Klebsiella pneumoniae) [µg/mL],MIC K. pneumoniae 064 (Klebsiella pneumoniae) [µg/mL],MIC K. pneumoniae 065 (Klebsiella pneumoniae) [µg/mL],MIC K. pneumoniae 066 (Klebsiella pneumoniae) [µg/mL],MIC K. pneumoniae 067 (Klebsiella pneumoniae) [µg/mL],MIC K. pneumoniae ATCC 4352 (Klebsiella pneumoniae) [µg/mL],MIC P. aeruginosa 068 (Pseudomonas aeruginosa) [µg/mL],MIC P. aeruginosa 070 (Pseudomonas aeruginosa) [µg/mL],MIC P. aeruginosa ATCC 27853 (Pseudomonas aeruginosa) [µg/mL],MIC A. baumanii 053 (Acinetobacter baumannii) [µg/mL],MIC A. baumanii ATCC BAA-747 (Acinetobacter baumannii) [µg/mL],HK-2 IC50 (HK-2 cells) [µg/mL],MIC A. baumanii 056 (Acinetobacter baumannii) [µg/mL],SMILES,further results
0.25,1,1,1,0.125,8,4,1,0.5,1,8,0.125,1,1,0.25,8,0.125,54,–,"CC(C)CC1CNCC(C(=O)N[C@H](C(=O)N[C@@H](CN)C(=O)N[C@H]2CCNC(=O)[C@H]([C@@H](C)O)NC(=O)[C@H](CCN)NC(=O)[C@H](CCN)NC(=O)[C@H](CC(C)C)NC(=O)[C@@H](Cc3ccc(Br)cc3)NC(=O)[C@H](CCN)NC2=O)C(C)O)C1 (single isomer, unassigned; isomer 2) [Example 12, (trans-5-(isobutyl-piperidine)-3-carbonyl L-Thr-L-Dap-polymyxin [D-(4-bromo Phe)]-6] heptapeptide Isomer 2]",–
–,–,8,32,1,>64,>64,32,–,32,>32,1,32,>32,1,>32,1,7,>32,CCC(C)CCCCC(=O)N[C@@H](CCN)C(=O)N[C@H](C(=O)N[C@@H](CCN)C(=O)N[C@H]1CCNC(=O)[C@H]([C@@H](C)O)NC(=O)[C@H](CCN)NC(=O)[C@H](CCN)NC(=O)[C@H](CC(C)C)NC(=O)[C@@H](Cc2ccc(-c3ccncc3)cc2)NC(=O)[C@H](CCN)NC1=O)C(C)O (stereo partly drawn) [Example 1] ({Octanoyl(6-Me)}-[Dab][Thr(3ξ)][Dab][Dab][Dab][X11]L[Dab][Dab]T; lactam 4-C),–
1,–,–,2,1,–,4,–,1,–,–,1,2,2,1,4,1,4,2,"CCCCCCCCN1CCNC[C@H]1C(=O)N[C@H](C(=O)N[C@@H](CN)C(=O)N[C@H]1CCNC(=O)[C@H]([C@@H](C)O)NC(=O)[C@H](CCN)NC(=O)[C@H](CCN)NC(=O)[C@H](CC(C)C)NC(=O)[C@@H](Cc2ccc(-c3ccccc3)cc2)NC(=O)[C@H](CCN)NC1=O)C(C)O (stereo partly drawn) [Example 30, (S)-1-Octylpiperazine-2-carbonyl L-Thr-L-Dap-polymyxin [D-(4-phenyl Phe)]-6 heptapeptide.] (X3-[Thr(3ξ)][Dap][Dab][Dab][dBip]L[Dab][Dab]T; lactam 3-C)",MIC K. pneumoniae ATCC 13882 (Klebsiella pneumoniae): 1 µg/mL; MIC P. aeruginosa CCUG 59347 (Pseudomonas aeruginosa): 2 µg/mL; MIC A. baumanii NCTC 13424 (Acinetobacter baumannii): 2 µg/mL
2,1,4,8,0.5,32,8,4,0.5,4,32,0.5,2,4,1,16,1,3,16,"CCC(C)CCCCC(=O)N[C@@H](CCN)C(=O)N[C@H](C(=O)N[C@@H](CCN)C(=O)N[C@H]1CCNC(=O)[C@H]([C@@H](C)O)NC(=O)[C@H](CCN)NC(=O)[C@H](CCN)NC(=O)[C@H](CC(C)C)NC(=O)[C@@H](Cc2ccc(-c3ccccc3)cc2)NC(=O)[C@H](CCN)NC1=O)C(C)O (stereo partly drawn) [Example C3, reference compound] ({Octanoyl(6-Me)}-[Dab][Thr(3ξ)][Dab][Dab][Dab][dBip]L[Dab][Dab]T; lactam 4-C)",–
